Assay results published in PMC12212627, “Machine Learning-Based Virtual Screening of Antibacterial Agents against Methicillin-Susceptible and Resistant Staphylococcus aureus” (Journal of Chemical Information and Modeling, 2024).
Converted amounts (≈) assume the structure as drawn.

What was measured:
MRSA (ATCC n° 43300) = assay: Broth microdilution (CLSI): screening at 100 μM and MIC, MRSA reference strain; type: cell-based, Staphylococcus aureus; conditions: for MIC: broth microdilution, 24 h, 37 °C; for % of growth inhibition, MRSA (ATCC 43300): at the concentration given (MIC or 100 μM where MIC >100)
Procedure: (§1) E. coli (ATCC n° […]) – a TEM-1 β-lactamase producing strain, S. aureus (ATCC n° 29213) – herein referred to as MSSA, MRSA (ATCC n° 43300), and two clinical strains of MRSA (n° 5749 and 6154) were used in the biological assays. The antibacterial activity and minimal inhibitory concentration (MIC) of the screened compounds were evaluated with the broth microdilution method in 96-well microplates, according to the Clinical and Laboratory Standards Institute (CLSI) protocol. Initially, compounds were evaluated in a screening assay to identify promising hits. The compounds were dissolved in dimethyl sulfoxide (DMSO) and then diluted in Mueller Hinton broth (MHB; Oxoid, Thermo Scientific, U.K.) to a concentration of 200 μM. After the addition of 100 μL to each well, the same volume of bacterial suspension containing 10^5 CFU/mL was added to each of the previous solutions, resulting in a final compound concentration of 100 μM. A viability control (bacterial suspension only), inhibition controls (MHB containing five times the MIC of penicillin G for MSSA, vancomycin for MRSA strains, and streptomycin for E. coli), a sterility control (medium only), and a vehicle control (DMSO 2% v/v) were included in each assay microplate. After 24 h of incubation at 37 °C, the microplates were visually inspected for inhibition of bacterial growth, and the absorbance at 600 nm of each well was read using a microplate reader spectrophotometer (VersaMax, Molecular Devices, CA). The percentage of growth inhibition was calculated as the percentage of growth reduction compared with the vehicle control. Wells showing no visual bacterial growth (no turbidity) were considered hits. The MIC of the promising compounds in the initial screening were tested as previously described, with a serial dilution of each compound (100–1.56 μM). All conditions were tested in triplicate from at least three independent assays.

[1] = system: E. coli (ATCC 35218), TEM-1 β-lactamase producing strain; assay: Broth microdilution (CLSI): screening at 100 μM and MIC, E. coli; type: cell-based
Procedure: as §1

[2] = system: S. aureus (ATCC n° 29213), MSSA; assay: Broth microdilution (CLSI): screening at 100 μM and MIC, MSSA; type: cell-based, Staphylococcus aureus; conditions: for MIC: broth microdilution, 24 h, 37 °C; for % of growth inhibition, MSSA (ATCC 29123): at the concentration (MIC)
Procedure: as §1

[3] = system: clinical strain of MRSA n° 6154; assay: Broth microdilution (CLSI): screening at 100 μM and MIC, MRSA clinical strain 6154; type: cell-based, Staphylococcus aureus; conditions: for % of growth inhibition, MRSA (6154): at the concentration given (MIC or 100 μM where MIC >100)
Procedure: as §1

MSSA and MRSA strains = assay: Broth microdilution, results summed up over MSSA and MRSA strains; type: cell-based, Staphylococcus aureus; conditions: for MIC: Staphylococcus aureus, span over the strains evaluated, read-out: MIC values against MSSA and all MRSA strains
Procedure: as §1

[4] = system: clinical strain of MRSA n° 5749; assay: Broth microdilution (CLSI): screening at 100 μM and MIC, MRSA clinical strain 5749; type: cell-based, Staphylococcus aureus; conditions: for MIC / MIC, MRSA (5749): broth microdilution, 24 h, 37 °C; for % of growth inhibition, MRSA (5749): at the concentration given (MIC or 100 μM where MIC >100)
Procedure: as §1

[5] = Cytotoxicity, colorimetric MTT assay; type: cell-based; conditions: African green monkey, Vero (ATCC CCL-81) cells, 72 h incubation
Procedure: As for the cytotoxic concentration of 50% (CC50) determination, the Vero (ATCC CCL-81) cell line was cultured in Eagle’s Minimum Essential Medium (MEM) (Cultilab, Brazil). The medium was supplemented with 5% fetal bovine serum (FBS) (Cultilab, Brazil), in addition to 100 IU/mL penicillin (Cellofarm, Brazil), 100 μg/mL streptomycin (Merck, Germany), and 0.25 μg/mL amphotericin B (Cultilab, Brazil). Cells were seeded in 96-well microplates (4.0 × 10^4 cells per well) and incubated at 37 °C and 5% CO2 atmosphere. After 24 h of incubation, 200 μL of fresh medium containing a serial dilution of the compounds (100–1.56 μM) was added to the plates. Serial dilutions of DMSO were used as vehicle controls. After 72 h of incubation under the same conditions, 100 μL of 3-(4,5-dimethylthiazol-2-yl)–2,5-diphenyltetrazolium bromide (MTT) in MEM (0.5 mg/mL) was added to each well. After 3 h of incubation with MTT (ThermoFischer Scientific), the medium was removed, and 100 μL of DMSO was added to each well to solubilize the formazan crystals. After a brief incubation under shaking for 20 min, the absorbance at 570 nm of each well was read using a spectrophotometer (VersaMax, Molecular Devices). The percentages of inhibition of cell viability were calculated by using the vehicle control. The cytotoxic concentration of 50% (CC50) is defined as the lowest concentration of a given compound that can reduce the viability of cultured cells by 50%. Posteriorly, the selectivity index (SI), that is, the ratio between the CC50 and MIC values of each active compound, was calculated. All conditions were tested in triplicate and at least two independent assays. The overall procedures applied in this work are illustrated in Figure .

[6] = pharmacokinetic properties already determined; cited from earlier work
[7] = Staphylococcus aureus, ATCC 43300 / MRSA
[8] = broth microdilution, 24 h, 37 °C
[9] = Staphylococcus aureus, ATCC 29123 / MSSA
[10] = Staphylococcus aureus, MRSA, broth microdilution, 24 h, 37 °C

Compound	MIC (MRSA (ATCC n° 43300); [7]) [µM]	% of growth inhibition, MRSA (ATCC 43300) (MRSA (ATCC n° 43300)) [%]	MIC, E. coli (ATCC 35218) [1, 8]	MIC [2, 9] [µM]	% of growth inhibition, MSSA (ATCC 29123) [2] [%]	MIC [3, 10] [µM]	% of growth inhibition, MRSA (6154) [3] [%]	MIC (MSSA and MRSA strains) [µM]	MIC ([4]; Staphylococcus aureus, MRSA) [µM]	% of growth inhibition, MRSA (5749) [4] [%]	CC50 at 72 h [5] [µM]	MIC, MRSA (5749) [4]	further results
CC(=O)O[C@@H]1[C@H](OC(C)=O)[C@H](C)O[C@H](n2cc(COC3=CC(=O)c4ccccc4C3=O)nn2)[C@H]1OC(C)=O [Compound 1, 2-[1-(2,3,4-tri-O-acetyl-6-deoxy-β-L-galactopyranosyl)-1,2,3-triazol-4-(methyl)oxy]-1,4-naphtoquinone]	> 100	70.02	−	100 (≈ 52.7 µg/mL)	99.60	> 100	50.60	≥ 100	> 100	41.76	33.8 ± 3.44		
C#CCOC1=CC(=O)c2ccccc2C1=O [Compound 3, 2-[(prop-2-yn-1-yl)oxy]-1,4-naphtoquinone]	50 (≈ 10.6 µg/mL)	> 99.9	−	50 (≈ 10.6 µg/mL)	96.52	50 (≈ 10.6 µg/mL)	> 99.9	50 (≈ 10.6 µg/mL)	50 (≈ 10.6 µg/mL)	> 99.9	21.2 ± 8.89		
Cc1ccc(OCC(N)COc2ccc(C)cc2)cc1 [Compound 4, 1,3-bis(4-methylphenoxy)propano-2-aminium chloride]	100	90.38		50	97.80						19 ± 6.1	−	inhibition at 100 µM ([1]; Escherichia coli, ATCC35218, at 100 μM, read-out: inhibition in the initial screening, E. coli): 85.5%; MIC ([1]; Escherichia coli, ATCC35218, broth microdilution, 24 h, 37 °C): 100 µM; % of growth inhibition, E. coli (ATCC 35218) ([1]; at the concentration (MIC)): 87.0%; MIC, MRSA (6154) [3, 8]: −
C=C/C(C)=C\C[C@]1(C)[C@H](C)C[C@H](O)[C@@]23C(=C[C@H](OC(=O)CCC)C[C@@H]12)[C@@H](OC(C)=O)O[C@H]3OC(C)=O [Compound 5, [(1S,3R,5R,6aS,7R,8R,10S,10aS)-1,3-diacetyloxy-10-hydroxy-7,8-dimethyl-7-[(2Z)-3-methylpenta-2,4-dienyl]-1,3,5,6,6a,8,9,10-octahydrobenzo[d][2]benzofuran-5-yl] butanoate]	100 (≈ 50.5 µg/mL)	> 99.9	−	200 (≈ 101 µg/mL)	96.43	100 (≈ 50.5 µg/mL)	> 99.9					−	cell permeability [6]: high; stability in the gastrointestinal tract [6]: degradation in the gastrointestinal tract; inhibition at 100 µM ([2]; Staphylococcus aureus, ATCC 29123 / MSSA, at 100 μM, below the MIC, read-out: % of growth inhibition, MSSA (ATCC 29123), second line): 27.4%
O=C(NCCCOCCCNC(=O)c1ccc(-c2ccc(Br)cc2)o1)c1ccc(-c2ccc(Br)cc2)o1 [Compound 6, N,N′-(oxybis(propane-3,1-diyl))-bis(5-(4-bromophenyl)furan-2-carboxamide)]	100 (≈ 63 µg/mL)	> 99.9	−	50 (≈ 31.5 µg/mL)	> 99.9	100 (≈ 63 µg/mL)	> 99.9	50 to 100 (≈ 31.5 to 63 µg/mL)	100 (≈ 63 µg/mL)	> 99.9	43.4 ± 4.66		inhibition at 50 µM (MRSA (ATCC n° 43300); Staphylococcus aureus, ATCC 43300 / MRSA, at 50 μM, below the MIC, read-out: % of growth inhibition, MRSA (ATCC 43300), second line): 85.3%; inhibition at 50 µM ([3]; Staphylococcus aureus, MRSA, at 50 μM, below the MIC, read-out: % of growth inhibition, MRSA (6154), second line): 78.4%; inhibition at 50 µM ([4]; Staphylococcus aureus, MRSA, at 50 μM, below the MIC, read-out: % of growth inhibition, MRSA (5749), second line): 73.5%
CC(=O)OC1C(C)OC(n2cc(COC3=CC(=O)c4ccccc4C3=O)nn2)C(OC(C)=O)C1OC(C)=O (stereo not drawn) [S33]													Percentage of growth inhibition MRSA (ATCC 43300) (MRSA (ATCC n° 43300); at 100 uM, Table S4): 0%; Percentage of growth inhibition E. coli (ATCC 35218) ([1]; at 100 uM, Table S4): 0%; Percentage of growth inhibition MSSA (ATCC 29123) ([2]; at 100 uM, Table S4): 0%; Percentage of growth inhibition MRSA (6154) ([3]; at 100 uM, Table S4): 0%; antibacterial activity (in words) (MSSA and MRSA strains; tested compounds of Supporting Table S4, 100 μM): inactive; Percentage of growth inhibition MRSA (5749) ([4]; at 100 uM, Table S4): 0%
